From article PMC9848371, “Synthesis, kinetic studies and in-silico investigations of novel quinolinyl-iminothiazolines as alkaline phosphatase inhibitors” (Journal of Enzyme Inhibition and Medicinal Chemistry, 2023)
Entries after “also recorded” stand apart in the source; their conditions may differ.

Columns and labels:
[1] = target: T1, calf intestinal alkaline phosphatase (Bos taurus, UniProt P19111); test: Alkaline phosphatase inhibition assay (spectrophotometric, p-NPP substrate); assay type: biochemical; conditions: Mean ± SEM, pH 9.5, 37 °C
T1 sequence (P19111 20-533): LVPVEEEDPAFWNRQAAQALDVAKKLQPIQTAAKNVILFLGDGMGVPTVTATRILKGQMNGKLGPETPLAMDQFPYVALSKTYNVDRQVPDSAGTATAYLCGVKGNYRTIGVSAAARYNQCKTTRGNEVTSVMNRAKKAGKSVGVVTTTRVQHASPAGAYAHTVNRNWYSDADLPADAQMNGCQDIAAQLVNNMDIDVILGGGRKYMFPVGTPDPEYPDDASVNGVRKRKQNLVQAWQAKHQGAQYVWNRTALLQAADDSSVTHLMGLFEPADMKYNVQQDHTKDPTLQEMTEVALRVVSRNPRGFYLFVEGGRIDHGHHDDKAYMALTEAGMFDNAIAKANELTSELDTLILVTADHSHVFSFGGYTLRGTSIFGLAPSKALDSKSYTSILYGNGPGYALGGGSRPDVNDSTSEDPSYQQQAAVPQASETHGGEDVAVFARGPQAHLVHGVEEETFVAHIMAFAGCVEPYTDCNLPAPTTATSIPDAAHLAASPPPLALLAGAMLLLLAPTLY
Description: The inhibitory activity of calf intestinal alkaline phosphatase was evaluated using spectrophotometric assay as previously reported in our studies[55]^,[56]. In addition, Kinetic mechanism analysis was conducted to determine the mechanism of inhibition. […] The detailed procedure for alkaline phosphate inhibition assay and kinetic mechanism analysis is given in supplementary file. […]
Alkaline phosphatase inhibition assay and kinetic mechanism analysis
The reaction mixture comprised of 50 mM Tris -HCl buffer (5 mM MgCl2, 0.1 mM ZnCl2 pH 9.5), the compound (0.1 mM with final DMSO 1% (v/v) and mixture was pre -incubated for 10 min by adding 5 µL of CIALP (0.025 U/mL). Then, 10 µL of substrate (0.5 mM p-NPP (para nitrophenyl phosphate disodium salt) was added to initiate the reaction and the assay mixture was incubated again for 30 min at 37 °C. The change in absorbance of released p-nitrophenolate was monitored at 405 nm, using a 96-well microplate reader (SpectraMax ABS, USA). All the experiments were repeated three times in a triplicate manner.
The Alkaline Phosphatase activities were calculated according to the following formula: […]

[2] = target: T1, calf intestinal alkaline phosphatase; test: Kinetic mechanism analysis (Lineweaver-Burk plot); assay type: biochemical; conditions: for Km / Vmax: substrate para nitrophenyl phosphate disodium salt
Description: The inhibitory activity of calf intestinal alkaline phosphatase was evaluated using spectrophotometric assay as previously reported in our studies[55]^,[56]. In addition, Kinetic mechanism analysis was conducted to determine the mechanism of inhibition. […] The detailed procedure for alkaline phosphate inhibition assay and kinetic mechanism analysis is given in supplementary file.
According to the EI and ESI constants, respectively, it was determined if the compounds had the ability to inhibit the free enzyme and the enzyme-substrate complex. Figure 4 illustrates a succession of straight lines obtained from the Lineweaver–Burk plot of the enzyme’s kinetic studies against the substrate para nitrophenyl phosphate disodium salt at various inhibitor doses (A).
Where ODcontrol and ODsample represents the optical v densities in the absence and presence of […]
The inhibitor 6g concentrations were used 0.00, 0.169, 0.337 and 0.674 µM, Substrate p-NPP concentrations were 10, 5, 2.5, 1.25, 0.625 and 0.3125 mM. Pre-incubation time and other conditions were same as described in alkaline phosphatase inhibition assay section. Maximal initial velocities were determined from initial linear portion of absorbances up to 10 minutes after addition of enzyme at per minute’s interval. The inhibition type on the enzyme was assayed by Lineweaver-Burk plot of inverse of velocities (1/V) versus inverse of substrate concentration 1/[S] mM-1. The EI dissociation constant Ki was determined by secondary plot of 1/V versus inhibitor […]
Information Classification: General

Row | Compound | IC50 [1] [nM] | melting point [°C] | other results
1 | CCCC(=O)/N=c1/scc(-c2ccc(Br)cc2)n1-c1cnc2ccccc2c1 [Compound 6a] | 7250 ± 435 |  | 
2 | CCCCC(=O)/N=c1/scc(-c2ccc(Br)cc2)n1-c1cnc2ccccc2c1 [Compound 6b] | 3150 ± 251 |  | 
3 | CCCCCC(=O)/N=c1/scc(-c2ccc(Br)cc2)n1-c1cnc2ccccc2c1 [Compound 6c, (E)-N-(4-(4-Bromophenyl)-3-(quinolin-3-yl)thiazol-2(3H)-ylidene)hexanamide] | 4240 ± 241 | 181 to 182 | 
4 | CCCCCCCCCC(=O)/N=c1/scc(-c2ccc(Br)cc2)n1-c1cnc2ccccc2c1 [Compound 6f] | 8680 ± 908 |  | 
5 | Cc1ccc(C(=O)/N=c2/scc(-c3ccc(Br)cc3)n2-c2cnc3ccccc3c2)cc1 [Compound 6h] | 6300 ± 634 | 103 to 105 | 
6 | O=C(/N=c1/scc(-c2ccc(Br)cc2)n1-c1cnc2ccccc2c1)c1cc([N+](=O)[O-])cc([N+](=O)[O-])c1 [Compound 6j, N-nitrobenzamide quinolinyl iminothiazoline] | 509 ± 36 |  | 

Continued by falling IC50 [1], values first:

Row | IC50 [1] [nM] | melting point [°C] | Compound | other results
7 | 957 ± 71 |  | O=C(/N=c1/scc(-c2ccc(Br)cc2)n1-c1cnc2ccccc2c1)c1ccc(Cl)cc1Cl [Compound 6i, N-dichlorobenzamide quinolinyl iminothiazoline] | 
8 | 886 ± 74 | 188 to 190 | CCCCCCC(=O)N=c1scc(-c2ccc(Br)cc2)n1-c1cnc2ccccc2c1 [Compound 6d] | 
9 | 754 ± 55 |  | CCCCCCCC(=O)N=c1scc(-c2ccc(Br)cc2)n1-c1cnc2ccccc2c1 [Compound 6e] | 
10 | 337 ± 15 | 217 to 220 | O=C(/N=c1/scc(-c2ccc(Br)cc2)n1-c1cnc2ccccc2c1)c1ccccc1 [Compound 6g, (E)-N-(4-(4-bromophenyl)-3-(quinolin-3-yl)thiazol-2(3H)-ylidene)benzamide] | Km ([2]; 6g concentration 0.169 µM): 310 µM; Vmax ([2]; 6g concentration 0.169 µM): 0.00204 ΔA /Min; Km ([2]; 6g concentration 0.337 µM): 310 µM; Vmax ([2]; 6g concentration 0.337 µM): 0.00175 ΔA /Min; Km ([2]; 6g concentration 0.674 µM): 310 µM; Vmax ([2]; 6g concentration 0.674 µM): 0.00133 ΔA /Min; Inhibition type ([2]; Lineweaver-Burk plot): non-competitively; also recorded: Non-Competitive; Ki ([2]; secondary plot of slope vs inhibitor concentration, read-out: Ki (EI dissociation constant)): 470 nM
